Tested on: PMA-induced release of endogenous TNFα from human monocytic U-937 cells
Test: ELISA-based TNFα release assay, PMA-induced, U-937 cells
Format: cell-based
Details: U-937, 1 h, PMA 25 ng/ml, Batimastat at 10 μM
Method: In brief, on day 1, Nunc black MaxiSorp® 96-well plates (Thermo Fisher Scientific, USA) were coated overnight with 100 μl per well of mouse anti-human TNFα capture antibody (provided as part of the DuoSet ELISA kit) at 4 μg/ml TBS at 4° C. On day 2, the capture antibody solution was removed and MaxiSorp® plates were blocked with 300 μl per well of TBS, 1% BSA at room temperature for 1-2 hours. Meanwhile, 80,000 U-937 (European Collection of Authenticated Cell Cultures, UK) cells in 80 μl of normal growth medium were seeded in each well of Greiner CELLSTAR V-bottom 96-well plates (Thermo Fisher Scientific, USA) and pre-incubated with 20 μl per well of standard growth medium supplemented with Batimastat (BB94, Abcam, UK) at 50 μM as positive control (for a final concentration of 10 μM in the resulting 100 μl sample volume), mouse IgG antibody (Thermo Fisher Scientific, USA) at 5 μg/ml as isotype control (for a final concentration of 1 μg/ml in the resulting 100 μl sample volume) or antibodies of the invention at 5 μg/ml (for a final concentration of 1 μg/ml in the resulting 100 μl sample volume) at 37° C., 5% CO2 for 30 minutes. […] Using an infinite M1000 (Tecan Group, Switzerland) microplate reader, the fluorescence of each well was collected at an excitation wavelength of 435 nm and an emission wavelength of 555 nm. […]

Compound `CNC(=O)[C@H](Cc1ccccc1)NC(=O)[C@H](CC(C)C)[C@H](CSc1cccs1)C(=O)NO` [Batimastat] has an inhibition at 10 µM (murine (m) and chimeric (ch) antibodies and IgG at 3 μg/ml) of 98.7% and an inhibition at 10 µM (recombinant murine antibodies and IgG at 1 μg/ml) of 100%.

Reference: US20240287172A1, “PROTEIN BINDERS TO IRHOM2 EPITOPES” (SCIRHOM GMBH, priority 2019, published 2024)
